Activity calls are given as the source filed them. The rule behind the calls is not given here.
Tests used:
[1] = test system: HepG2; test: Cytotoxicity against human HepG2 cells after 72 hrs by MTT assay; assay type: functional, cell-based; conditions: HepG2, 72 h
[2] = test system: L02; test: Cytotoxicity against human L02 cells after 72 hrs by MTT assay; assay type: cell-based; conditions: L02, 72 h
[3] = test system: A549; test: Cytotoxicity against human A549 cells after 72 hrs by MTT assay; assay type: functional, cell-based; conditions: A549, 72 h
[4] = target: AMP-activated protein kinase, AMPK (Homo sapiens) (UniProt P54646+O43741+P54619+Q9UGJ0+Q9Y478+Q13131+Q9UGI9); test: Activation of AMPK in human HepG2 cells after 24 hrs by Western blot analysis; assay type: cell-based
[5] = species on record: Homo sapiens; test: Inhibition of NADH-ubiquinone oxidoreductase (unknown origin)
[6] = test system: HepG2; test: Induction of apoptosis in human HepG2 cells assessed as live cells at 0.3 uM after 40 hrs by Annexin-V-FITC/propidium iodide staining based flow cytometry (reference value: 82.6%); assay type: functional
[7] = test system: HepG2; test: Induction of apoptosis in human HepG2 cells assessed as early apoptotic cells at 0.3 uM after 40 hrs by Annexin-V-FITC/propidium iodide staining based flow cytometry (reference value: 2.8%); assay type: functional
[8] = test system: HepG2; test: Induction of apoptosis in human HepG2 cells assessed as late apoptotic cells at 0.3 uM after 40 hrs by Annexin-V-FITC/propidium iodide staining based flow cytometry (reference value: 7.6%); assay type: functional
[9] = test system: HepG2; test: Induction of apoptosis in human HepG2 cells assessed as necrotic cells at 0.3 uM after 40 hrs by Annexin-V-FITC/propidium iodide staining based flow cytometry (reference value: 7%); assay type: functional
[10] = test system: HepG2; test: Induction of apoptosis in human HepG2 cells assessed as live cells at 3 uM after 40 hrs by Annexin-V-FITC/propidium iodide staining based flow cytometry (reference value: 82.6%); assay type: functional
[11] = test system: HepG2; test: Induction of apoptosis in human HepG2 cells assessed as early apoptotic cells at 3 uM after 40 hrs by Annexin-V-FITC/propidium iodide staining based flow cytometry (reference value: 2.8%); assay type: functional
[12] = test system: HepG2; test: Induction of apoptosis in human HepG2 cells assessed as late apoptotic cells at 3 uM after 40 hrs by Annexin-V-FITC/propidium iodide staining based flow cytometry (reference value: 7.6%); assay type: functional
[13] = test system: HepG2; test: Induction of apoptosis in human HepG2 cells assessed as necrotic cells at 3 uM after 40 hrs by Annexin-V-FITC/propidium iodide staining based flow cytometry (reference value: 7%); assay type: functional
[14] = test system: HepG2; test: Induction of apoptosis in human HepG2 cells assessed as caspase-3 cleavage at 0.1 to 30 uM after 24 hrs by Western blot analysis; assay type: functional, cell-based
[15] = test system: HepG2; test: Induction of apoptosis in human HepG2 cells assessed as PARP cleavage at 0.1 to 30 uM after 24 hrs by Western blot analysis; assay type: functional, cell-based
[16] = test system: HepG2; test: Induction of intracellular ATP depletion in human HepG2 cells at 3 uM after 44 hrs by luminescence based spectrophotometric method; assay type: functional, cell-based
[17] = test system: HepG2; test: Induction of intracellular ATP depletion in human HepG2 cells at 0.3 uM after 44 hrs by luminescence based spectrophotometric method; assay type: functional, cell-based
[18] = test system: HepG2; test: Reduction in Bcl2 to bax ratio in human HepG2 cells at 0.1 to 30 uM after 24 hrs by Western blot analysis; assay type: functional, cell-based
[19] = species on record: Homo sapiens; test: Inhibition of NADH-ubiquinone oxidoreductase (unknown origin) at 50 uM

For `O=C(COc1ccc(-c2cc(=O)c3ccccc3o2)cc1)N1CCN(Cc2ccccc2)CC1`, the IC50 [1] was > 20 µM.

With `CC(C)(Oc1ccc2c(=O)c(-c3ccccc3)coc2c1)C(=O)NC1CCN(Cc2ccccc2)CC1` the IC50 [1] was > 20 µM.

In the case of `O=C(COc1ccc2c(=O)cc(-c3ccccc3)oc2c1)NC1CCN(C(=O)c2ccccc2)CC1`, the IC50 [1] is reported as > 20 µM.

For `N#Cc1ccc(CN2CCC(NC(=O)COc3ccc4c(=O)cc(-c5ccccc5)oc4c3)CC2)cc1`, the IC50 [1] was 9.3 µM.

With `O=C(COc1ccc2c(=O)c(-c3ccccc3)coc2c1)N1CCN(Cc2ccccc2)CC1` the IC50 [1] was > 20 µM.

`COc1ccc(C(=O)C2CCN(C(=O)c3ccc(C(=O)NC4CCN(Cc5ccc(C#N)cc5)CC4)cn3)CC2)cc1` gave an IC50 [1] of 5.2 µM, an IC50 [2] of 25.9 µM and an IC50 [3] of 19.5 µM. The Activity [4] was “Active” and the inhibition [5] was “Dose-dependent effect”.

In the case of `COc1ccc(CN2CCC(NC(=O)COc3ccc(-c4cc(=O)c5ccccc5o4)cc3)CC2)cc1`, the IC50 [1] is reported as 6.8 µM.

For `COc1ccc(CN2CCC(NC(=O)C(C)(C)Oc3ccc(-c4cc(=O)c5ccccc5o4)cc3)CC2)cc1`, the IC50 [1] was 2.8 µM, the IC50 [2] was 17.6 µM and the IC50 [3] was 40 µM. The Activity [6] was 80.2%, the Activity [7] was 1.6% and the Activity [8] was 7.3%. For the same compound, the Activity [9] was 11%, the Activity [10] was 53.4% and the Activity [11] was 0%. For the same compound, the Activity [12] was 0.2%, the Activity [13] was 46.4% and the Activity [14] was “inactive”. For the same compound, the Activity [15] was “inactive”, the Activity [16] was “Active” and the Activity [17] was “inactive”. The Activity [4] was “Dose-dependent effect”, the Activity [18] was “Active” and the inhibition [5] was “Dose-dependent effect”. For the same compound, the inhibition [19] was “Active”.

`O=C(COc1ccc2c(=O)cc(-c3ccccc3)oc2c1)NC1CCN(Cc2ccc(C(F)(F)F)cc2)CC1` was tested, and the IC50 [1] was 7.2 µM.

In the case of `O=C(COc1ccc2c(=O)c(-c3ccccc3)coc2c1)NC1CCN(Cc2ccccc2)CC1`, the IC50 [1] is reported as > 20 µM.

Compound `CC(C)(Oc1ccc2c(=O)cc(-c3ccccc3)oc2c1)C(=O)NC1CCN(Cc2ccccc2)CC1` has an IC50 [1] of 14 µM.

With `O=C(COc1ccc(-c2cc(=O)c3ccccc3o2)cc1)NC1CCN(C(=O)c2ccccc2)CC1` the IC50 [1] was > 20 µM.

Compound `O=C(COc1ccc(-c2cc(=O)c3ccccc3o2)cc1)NC1CCN(Cc2ccccc2)CC1` has an IC50 [1] of 15.5 µM.

`CC(C)(Oc1ccc2c(=O)cc(-c3ccccc3)oc2c1)C(=O)NC1CCN(Cc2ccc(C(F)(F)F)cc2)CC1` was tested, and the IC50 [1] was > 20 µM.

With `CC(C)(Oc1ccc(-c2cc(=O)c3ccccc3o2)cc1)C(=O)NC1CCN(Cc2ccccc2)CC1` the IC50 [1] was > 20 µM.

In the case of `N#Cc1ccc(CN2CCC(NC(=O)COc3ccc4c(=O)c(-c5ccccc5)coc4c3)CC2)cc1`, the IC50 [1] is reported as > 20 µM.

`O=C(COc1ccc2c(=O)cc(-c3ccccc3)oc2c1)N1CCN(Cc2ccccc2)CC1` was tested, and the IC50 [1] was > 20 µM.

With `O=C(COc1ccc2c(=O)cc(-c3ccccc3)oc2c1)NC1CCN(Cc2ccccc2)CC1` the IC50 [1] was 16.7 µM.

`COc1ccc(CN2CCC(NC(=O)COc3ccc4c(=O)c(-c5ccccc5)coc4c3)CC2)cc1` was tested, and the IC50 [1] was > 20 µM.

In the case of `COc1ccc(CN2CCC(NC(=O)C(C)(C)Oc3ccc4c(=O)cc(-c5ccccc5)oc4c3)CC2)cc1`, the IC50 [1] is reported as 8.7 µM.

With `N#Cc1ccc(CN2CCC(NC(=O)COc3ccc(-c4cc(=O)c5ccccc5o4)cc3)CC2)cc1` the IC50 [1] was 6.7 µM.

Source: ChEMBL document CHEMBL4229436, “Synthesis and biological evaluation of Complex I inhibitor R419 and its derivatives as anticancer agents in HepG2 cells” (Bioorg Med Chem Lett, 2018)
